For 21 compounds, IC50 results are on record in patent publication US20090170886A1 (Pfizer Inc, priority 2005, published 2009).

Numbering of substitutions follows the chain as printed. Read-outs that look alike come from different tables or passages of the source.

The target of test [1] is T1, hAR (human androgen receptor, baculovirus/Sf9 generated extracts) (Homo sapiens, UniProt P10275).
T1 construct: made in house; host or cells: baculovirus/Sf9 insect cells (crude extract)
T1 sequence (P10275 1-920): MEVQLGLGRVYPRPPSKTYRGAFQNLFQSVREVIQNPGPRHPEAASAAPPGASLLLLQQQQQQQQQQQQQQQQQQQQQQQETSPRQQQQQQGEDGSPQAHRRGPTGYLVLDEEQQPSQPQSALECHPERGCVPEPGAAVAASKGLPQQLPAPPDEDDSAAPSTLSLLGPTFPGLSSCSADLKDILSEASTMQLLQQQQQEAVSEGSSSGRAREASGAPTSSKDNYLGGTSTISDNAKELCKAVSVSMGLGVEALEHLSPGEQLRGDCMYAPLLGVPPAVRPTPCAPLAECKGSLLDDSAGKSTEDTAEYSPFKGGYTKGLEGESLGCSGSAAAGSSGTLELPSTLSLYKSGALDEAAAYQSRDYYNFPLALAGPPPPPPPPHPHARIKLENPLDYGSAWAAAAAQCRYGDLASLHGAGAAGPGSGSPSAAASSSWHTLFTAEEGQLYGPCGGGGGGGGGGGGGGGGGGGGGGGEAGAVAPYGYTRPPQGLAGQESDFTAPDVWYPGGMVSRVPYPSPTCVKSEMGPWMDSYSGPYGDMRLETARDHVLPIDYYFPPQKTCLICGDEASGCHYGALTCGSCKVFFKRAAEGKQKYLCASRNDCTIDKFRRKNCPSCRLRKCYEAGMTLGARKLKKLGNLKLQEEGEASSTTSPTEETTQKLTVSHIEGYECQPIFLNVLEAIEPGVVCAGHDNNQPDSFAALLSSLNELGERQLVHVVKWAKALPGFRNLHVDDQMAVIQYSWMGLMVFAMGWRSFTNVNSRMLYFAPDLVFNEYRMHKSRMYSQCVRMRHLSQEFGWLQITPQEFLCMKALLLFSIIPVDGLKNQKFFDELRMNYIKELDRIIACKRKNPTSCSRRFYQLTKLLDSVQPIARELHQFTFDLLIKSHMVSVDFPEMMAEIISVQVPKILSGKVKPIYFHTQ
Description: AR Binding Assay (competitive binding with 3H-DHT tracer). As to conditions: 1 nM 3H-DHT, one hour at 4° C., mean of multiple tests. The method, then:
The compounds of Formula I have affinity for the androgen receptor. […] The description below describes how the assay was carried out.
Competitive binding analysis was performed on baculovirus/Sf9 generated hAR extracts in the presence or absence of different concentrations of test agent and a fixed concentration of ^3H-dihydrotestosterone (^3H-DHT) as tracer. This binding assay method is a modification of a protocol previously described (Liao S., et. al., J. Steroid Biochem., 20:11-17, 1984). Briefly, progressively decreasing concentrations of compounds are incubated in the presence of hAR extract (Chang et al., P.N.A.S., Vol. 89, pp. 5546-5950, 1992), hydroxylapatite, and 1 nM ^3H-DHT for one hour at 4° C. Subsequently, the binding reactions are washed three times to completely remove excess unbound ^3H-DHT. hAR bound ^3H-DHT levels are determined in the presence of compounds (i.e. competitive binding) and compared to levels bound when no competitor is present (i.e. maximum binding). Compound binding affinity to the hAR is expressed as the concentration of compound at which one half of the maximum binding is inhibited. Table II below provides the results that were obtained for selected compounds (reported data is the mean of multiple tests as shown below).

Test [2] has as its target T2, androgen receptor in MDA-MB453-MMTV clone 54-19 cells (Homo sapiens, UniProt P10275).
T2 sequence (P10275 1-920 Q868H): T1 sequence (P10275 1-920) with Q868H
Description: AR Antagonist Cell Assay (MMTV-luciferase reporter, DHT-induced). Format: cell-based. Particulars: MDA-MB453-MMTV clone 54-19, 100 pM DHT, 17 hr; mean of multiple tests. The method, then:
The compounds ability to antagonize the effects of androgen on the androgen receptor were determined in a whole cell assay as described immediately below.
Cell line: MDA-MB453-MMTV clone 54-19. This cell line is a stable transfected cell line with MDA-MB453 cell background (a human breast tumor cell line expressing androgen receptor). A MMTV minimal promoter containing ARE was first cloned in front of a firefly luciferase reporter gene. Then the cascade was cloned into transfection vector pUV120puro. Electroporation method was used for transfecting MDA-MB-453 cell. Puromycin resistant stable cell line was selected.
Culture medium: DMEM (high glucose, Gibco cat #: 11960-044), 10% FBS, and 1% L-glutamine
Plating medium: DMEM (phenol red free), 10% charcoal treated HyClone serum, 1% L-glutamine
Assay medium: DMEM (phenol red free), 1% charcoal treated HyClone serum, 1% L-glutamine, and 1% penicillin/streptomycin
3× luciferase buffer: 2% beta-mercaptoethanol, 0.6% ATP, 0.0135% luciferine in cell lysis buffer
Cells are maintained in culture medium, splitting cells when they reach 80-90% confluence. To test compounds, 10,000 cells/well are plated to opaque 96 cell culture plate in 100 ul/well plating medium, culture for overnight at 37° C. in cell culture incubator. Carefully remove plating medium, then add 80 ul/well of pre-warmed assay medium, add 10 ul/well testing compound (final concentration at) 1000 nM, 200 nM, 40 nM, 8 nM, 1.6 nM, and 0.32 nM), incubate at 37° C. for 30 minutes. Add 10 ul/well freshly prepared DHT (final concentration at 100 pM) to each well, incubate at 37° C. for 17 hr (overnight). Add 50 ul/well 3× luciferase buffer, incubate at room temperature for 5 minutes, then count on Luminometer. The fold induction over background by 100 pM DHT in the absence of testing compounds is standardized as 100% and experimental result is expressed as percentage of inhibition by testing compounds.
The results are reported as the mean of multiple tests as described below (the numbers of tests are indicated in the footnote). ND denotes that the compound was not tested.

Where [3] appears, read: hAR extract, read-out: AR Binding IC50.

As to `COc1ccccc1COc1ccc(C#N)c(Cl)c1` [Example 67, 2-Chloro-4-(2-methoxy-benzyloxy)-benzonitrile], the IC50 in test [1] (AR Binding IC50, hAR extract) came to 99 nM; in test [2], 166 nM.
The corresponding values for `CC(Oc1ccc(C#N)c(C(F)(F)F)c1)c1cccc(Cl)c1` (stereo not drawn) [Example 26, 4-[1-(3-Chloro-phenyl)-ethoxy]-2-trifluoromethyl-benzonitrile] are 122 nM and 56 nM.
`CC(Oc1ccc(C#N)c(C(F)(F)F)c1)c1cccc(O)c1` (racemic) [Example 8, 4-[1-(3-Hydroxyphenyl)ethoxy]-2-(trifluoromethyl)benzonitrile]: the IC50 in test [1] (AR Binding IC50, hAR extract) is 21 nM; in test [2], 529 nM.
On the same counts, the results for `N#Cc1ccc(OCc2cccc(O)c2)cc1Cl` [Example 66, 2-Chloro-4-(3-hydroxy-benzyloxy)-benzonitrile] are 11 nM and 4 nM.
As for `CC(Oc1ccc(C#N)c(C(F)(F)F)c1)c1cccc(C#N)c1` (single isomer, unassigned) [Example 78, 4-[1-(3-Cyano-phenyl)-ethoxy]-2-trifluoromethyl-benzonitrile], the IC50 worked out at 37 nM in test [1] (AR Binding IC50, hAR extract) and 47 nM in test [2].
The corresponding values for `CC(Oc1ccc(C#N)c(C(F)(F)F)c1)c1ccccc1F` (stereo not drawn) [Example 24, 4-[1-(2-Fluoro-phenyl)-ethoxy]-2-trifluoromethyl-benzonitrile] are 79 nM and 826 nM.
The corresponding values for `CC(Oc1ccc(C#N)c(Cl)c1)c1ccccc1` (stereo not drawn) [Example 71, 2-Chloro-4-(1-phenyl-ethoxy)-benzonitrile] are 13 nM and 8 nM.
On the same counts, the results for `CCCC(Oc1ccc(C#N)c(C(F)(F)F)c1)c1cncc(OCOCCOC)c1` (stereo not drawn) [Example 92] are 74 nM and > 934 nM.
`Cc1cccc(C(CC(C)C)Oc2ccc(C#N)c(C(F)(F)F)c2)n1` (stereo not drawn) [Example 85, 4-[3-Methyl-1-(6-methyl-pyridin-2-yl)-butoxy]-2-trifluoromethyl-benzonitrile]: the half-maximal inhibitory concentration (IC50) in test [1] (setting [3]) was 167 nM; in test [2], > 1000 nM.
Take `N#Cc1ccc(OC(Cc2ccccc2)c2cccnc2)cc1C(F)(F)F` (stereo not drawn) [Example 91, 4-(2-Phenyl-1-pyridin-3-yl-ethoxy)-2-trifluoromethyl-benzonitrile]: the 50% inhibitory concentration (IC50) in test [1] (setting [3]) is 116 nM; in test [2] it was 342 nM.
For `Cc1ccccc1COc1ccc(C#N)c(Cl)c1` [Example 65, 2-Chloro-4-(2-methyl-benzyloxy)-benzonitrile], the results for the IC50 in test [1] (setting [3]) and in test [2] were 129 nM and > 1000 nM, respectively.
On to `C#CC(Oc1ccc(C#N)c(C(F)(F)F)c1)c1ccccc1` (stereo not drawn) [Example 56, 4-(1-Phenyl-prop-2-ynyloxy)-2-trifluoromethyl-benzonitrile], for which the IC50 in test [1] (AR Binding IC50, hAR extract) was determined as 74 nM; in test [2] it was 20 nM.
For `COc1ccccc1C(C)Oc1ccc(C#N)c(C(F)(F)F)c1` (stereo not drawn) [Example 5, 4-[1-(2-Methoxy-phenyl)-ethoxy]-2-t-trifluoromethyl-benzonitrile], the IC50 was 312 nM in test [1] (setting [3]) and > 1000 nM in test [2].
`CC(Oc1ccc(C#N)cc1Cl)c1ccccc1` (stereo not drawn) [Example 57, 3-Chloro-4-(1-phenyl-ethoxy)-benzonitrile]: the IC50 in test [1] (AR Binding IC50, hAR extract) amounted to 240 nM; in test [2], 86 nM.
On the same counts, the results for `CCC(Oc1ccc(C#N)c(C(F)(F)F)c1)c1ccccc1` (stereo not drawn) [Example 48, 4-(1-Phenyl-propoxy)-2-trifluoromethyl-benzonitrile] are 38 nM and 345 nM.
As to `CCCCC(Oc1ccc(C#N)c(C(F)(F)F)c1)c1ccccn1` (stereo not drawn) [Example 84, 4-(1-Pyridin-2-yl-pentyloxy)-2-trifluoromethyl-benzonitrile], the IC50 in test [1] (setting [3]) was 161 nM; in test [2], > 667 nM.
On the same counts, the results for `N#Cc1ccc(OCc2cccc(O)c2)c(Cl)c1` [Example 41, 3-Chloro-4-(3-hydroxy-benzyloxy)-benzonitrile] are 76 nM and 286 nM.
Turning to `COc1cccc(CCOc2ccc(C#N)c(C(F)(F)F)c2)c1` [Example 77, 4-[2-(3-Methoxy-phenyl)-ethoxy]-2-trifluoromethyl-benzonitrile], the IC50 in test [1] (AR Binding IC50, hAR extract) stood at 109 nM; in test [2], 11 nM.
For the compound `Cc1ccccc1C(C)Oc1ccc(C#N)c(Cl)c1` (stereo not drawn) [Example 62], the values for the IC50 in test [1] (setting [3]) and in test [2] were 52 nM and 464 nM, respectively.
As to `C[C@@H](Oc1ccc(C#N)c(C(F)(F)F)c1)c1ccccc1` [Example 3, (R)-4-(1-Phenyl-ethoxy)-2-trifluoromethyl-benzonitrile], the IC50 in test [1] (AR Binding IC50, hAR extract) was 3 nM; in test [2], 61 nM.
The corresponding values for `CC(Oc1ccc(C#N)c(C(F)(F)F)c1)c1cccnc1` (racemic) [Example 33, 4-(1-Pyridin-3-yl-ethoxy)-2-trifluoromethyl-benzonitrile] are 192 nM and 63 nM.

One may read the IC50 as the concentration that gives 50% inhibition.
